Reference: US11485742B2, “2-azaspiro[3.4]octane derivatives as M4 agonists” (NOVARTIS AG, priority 2019, dated 2022)
Blank lines part the entries; values can stand above or below the compound they belong to.

Experiments:
[1] = biological target: T1, human cloned CHRM5 receptor (Homo sapiens, UniProt P08912); experiment: CHRM5 Ca++ Flux Assay (M5_CHO cells, agonist mode); assay type: cell-based; details: for Emax: Percent Activity (PA) measured to EC100 of Carbachol, read-out: M5 FDSS PA %; for EC50: agonist mode, geometric mean if tested more than once, read-out: M5 FDSS EC50
T1 construct: expressed in transfected cells; host or cells: CHO (M5_CHO)
T1 sequence (P08912 1-532): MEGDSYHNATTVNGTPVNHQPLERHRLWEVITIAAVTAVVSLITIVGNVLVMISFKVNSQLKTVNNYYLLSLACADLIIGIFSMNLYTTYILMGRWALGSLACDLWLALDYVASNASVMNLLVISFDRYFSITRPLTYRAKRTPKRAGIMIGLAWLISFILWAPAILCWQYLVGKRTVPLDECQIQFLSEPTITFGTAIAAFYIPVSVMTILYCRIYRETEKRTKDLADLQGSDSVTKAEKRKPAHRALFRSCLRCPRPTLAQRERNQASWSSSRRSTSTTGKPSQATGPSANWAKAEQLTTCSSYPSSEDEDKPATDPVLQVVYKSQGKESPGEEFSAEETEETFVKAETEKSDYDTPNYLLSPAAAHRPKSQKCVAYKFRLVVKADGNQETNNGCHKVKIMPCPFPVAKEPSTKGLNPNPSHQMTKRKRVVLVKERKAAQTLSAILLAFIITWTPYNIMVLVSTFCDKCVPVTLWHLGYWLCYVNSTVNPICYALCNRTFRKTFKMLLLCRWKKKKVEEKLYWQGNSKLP
In short: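 CHO-K1 cells stably expressing human M3 or M5 receptor, dye-loaded ≥1 h, treated with 11-point compound doses in triplicate; Ca++ flux read over 3 min (FDSS). Agonist-mode four-parameter fit; percent activity relative to carbachol EC100; repeat tests reported as geometric mean.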

[2] = biological target: T2, human cloned CHRM2 receptor (Homo sapiens, UniProt P08172); experiment: CHRM2 Ca++ Flux Assay (M2_CHO cells, agonist mode); assay type: cell-based; details: M2 CHO cells; for EC50: agonist mode, geometric mean if tested more than once, read-out: M2 FDSS EC50; for Emax: Percent Activity (PA) measured to EC100 of Carbachol, read-out: M2 FDSS PA %
T2 construct: expressed in transfected cells; host or cells: CHO-K1 (M2_CHO)
T2 sequence (P08172 1-466): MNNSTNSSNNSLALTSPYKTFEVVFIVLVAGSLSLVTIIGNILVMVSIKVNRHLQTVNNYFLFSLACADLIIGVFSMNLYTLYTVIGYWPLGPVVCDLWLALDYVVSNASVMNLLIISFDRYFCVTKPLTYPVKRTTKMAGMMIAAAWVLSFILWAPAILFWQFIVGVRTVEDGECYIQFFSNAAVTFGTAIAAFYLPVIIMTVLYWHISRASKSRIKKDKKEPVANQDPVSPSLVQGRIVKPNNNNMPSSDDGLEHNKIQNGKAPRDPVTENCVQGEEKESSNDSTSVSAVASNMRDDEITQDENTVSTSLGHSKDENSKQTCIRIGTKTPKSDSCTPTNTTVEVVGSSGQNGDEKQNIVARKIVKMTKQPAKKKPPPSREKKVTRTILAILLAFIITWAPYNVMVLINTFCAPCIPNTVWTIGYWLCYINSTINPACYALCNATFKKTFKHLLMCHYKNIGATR
In short: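 CHO-K1 cells stably expressing human CHRM2 were plated overnight at 12K cells/well and loaded with Ca++ dye for 1–2 h. They were then held 60 minutes in HBSS −Ca/−Mg, 20 mM HEPES, 2.5 mM probenecid, 20 μM ATP. Agonist-mode Ca++ flux was read over 3 minutes. Four-parameter fits of triplicates gave percent activity relative to carbachol EC100.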

- Emax [1]: 0%
- EC50 [1]: > 25 µM
- EC50 [2]: 0.536 µM
- Emax [2]: 32%
Structure (SMILES): Fc1ccc(OC2COC2)c(C2CCN([C@@H]3COC4(C3)CN(c3nnco3)C4)CC2)c1 [Example 1A, (S)-7-(4-(5-fluoro-2-(oxetan-3-yloxy)phenyl)piperidin-1-yl)-2-(1,3,4-oxadiazol-2-yl)-5-oxa-2-azaspiro[3.4]octane]

- Emax [1]: 0%
- EC50 [1]: > 25 µM
- EC50 [2]: 3.81 µM
- Emax [2]: 16%
Structure (SMILES): COc1ccccc1C1CCN([C@@H]2COC3(C2)CN(c2nnco2)C3)CC1 [Example 1Q, (S)-7-(4-(2-methoxyphenyl)piperidin-1-yl)-2-(1,3,4-oxadiazol-2-yl)-5-oxa-2-azaspiro[3.4]octane]

- Emax [1]: 30%
- EC50 [1]: 3.65 µM
- EC50 [2]: 0.113 µM
- Emax [2]: 67%
Structure (SMILES): Cc1nnc(COc2ccc(F)cc2C2CCN([C@@H]3COC4(C3)CN(c3nnco3)C4)CC2)o1 [Example 2F, (S)-7-(4-(5-fluoro-2-((5-methyl-1,3,4-oxadiazol-2-yl)methoxy)phenyl)piperidin-1-yl)-2-(1,3,4-oxadiazol-2-yl)-5-oxa-2-azaspiro[3.4]octane]

- Emax [1]: 0%
- EC50 [1]: > 25 µM
- EC50 [2]: > 25 µM
- Emax [2]: 0%
Structure (SMILES): CC(C)(O)CCOc1cc(F)ccc1C1CCN([C@@H]2COC3(C2)CN(c2nncs2)C3)CC1 [Example 5V, (S)-4-(2-(1-(2-(1,3,4-thiadiazol-2-yl)-5-oxa-2-azaspiro[3.4]octan-7-yl)piperidin-4-yl)-5-fluorophenoxy)-2-methylbutan-2-ol]

- Emax [1]: 0%
- EC50 [1]: > 25 µM
- EC50 [2]: 0.531 µM
- Emax [2]: 32%
Structure (SMILES): Fc1ccc(OC[C@H]2CCOC2)c(C2CCN([C@@H]3COC4(C3)CN(c3nnco3)C4)CC2)c1 [Example 1I, (S)-7-(4-(5-fluoro-2-(((S)-tetrahydrofuran-3-yl)methoxy)phenyl)piperidin-1-yl)-2-(1,3,4-oxadiazol-2-yl)-5-oxa-2-azaspiro[3.4]octane]

- Emax [1]: 0%
- EC50 [1]: > 25 µM
- EC50 [2]: 20.7 µM
- Emax [2]: 30%
Structure (SMILES): Fc1ccc(OC2CC3(COC3)C2)c(C2CCN([C@@H]3COC4(C3)CN(c3nncs3)C4)CC2)c1 [Example 5W, (S)-7-(4-(2-((2-oxaspiro[3.3]heptan-6-yl)oxy)-5-fluorophenyl)piperidin-1-yl)-2-(1,3,4-thiadiazol-2-yl)-5-oxa-2-azaspiro[3.4]octane]

- Emax [1]: 0%
- EC50 [1]: > 25 µM
- EC50 [2]: 0.39 µM
- Emax [2]: 38%
Structure (SMILES): Fc1ccc(OC2COC2)c(C2CCN([C@@H]3COC4(C3)CN(c3ncon3)C4)CC2)c1 [Example 6B, (S)-7-(4-(5-fluoro-2-(oxetan-3-yloxy)phenyl)piperidin-1-yl)-2-(1,2,4-oxadiazol-3-yl)-5-oxa-2-azaspiro[3.4]octane]

- Emax [1]: 0%
- EC50 [1]: > 25 µM
- EC50 [2]: 1.42 µM
- Emax [2]: 43%
Structure (SMILES): Fc1ccc(OC[C@H]2CCOC2)c(C2CCN([C@@H]3COC4(C3)CN(c3nncs3)C4)CC2)c1 [Example 5X, (S)-7-(4-(5-fluoro-2-(((S)-tetrahydrofuran-3-yl)methoxy)phenyl)piperidin-1-yl)-2-(1,3,4-thiadiazol-2-yl)-5-oxa-2-azaspiro[3.4]octane]

- Emax [1]: 0%
- EC50 [1]: > 25 µM
- EC50 [2]: 1.09 µM
- Emax [2]: 51%
Structure (SMILES): c1ccc(C2CCN([C@@H]3COC4(C3)CN(c3nnco3)C4)CC2)c(OC2COC2)c1 [Example 1P, (S)-2-(1,3,4-oxadiazol-2-yl)-7-(4-(2-(oxetan-3-yloxy)phenyl)piperidin-1-yl)-5-oxa-2-azaspiro[3.4]octane]

More lines, now with the values behind:

Structure (SMILES): c1ccc(C2CCN([C@@H]3COC4(C3)CN(c3nnco3)C4)CC2)c(O[C@@H]2CCOC2)c1 [Example 1O, (S)-2-(1,3,4-oxadiazol-2-yl)-7-(4-(2-(((R)-tetrahydrofuran-3-yl)oxy)phenyl)piperidin-1-yl)-5-oxa-2-azaspiro[3.4]octane]
- Emax [1]: 0%
- EC50 [1]: > 25 µM
- EC50 [2]: 0.611 µM
- Emax [2]: 36%

Structure (SMILES): Fc1cc(O[C@@H]2CCOC2)c(C2CCN([C@@H]3COC4(C3)CN(c3nnco3)C4)CC2)cc1F [Example 1R, (S)-7-(4-(4,5-difluoro-2-(((R)-tetrahydrofuran-3-yl)oxy)phenyl)piperidin-1-yl)-2-(1,3,4-oxadiazol-2-yl)-5-oxa-2-azaspiro[3.4]octane]
- Emax [1]: 0%
- EC50 [1]: > 25 µM
- EC50 [2]: 0.359 µM
- Emax [2]: 32%

Structure (SMILES): Fc1ccc(OCc2ncccn2)c(C2CCN([C@@H]3COC4(C3)CN(c3nnco3)C4)CC2)c1 [Example 2I, (S)-7-(4-(5-fluoro-2-(pyrimidin-2-ylmethoxy)phenyl)piperidin-1-yl)-2-(1,3,4-oxadiazol-2-yl)-5-oxa-2-azaspiro[3.4]octane]
- Emax [1]: 0%
- EC50 [1]: > 25 µM
- EC50 [2]: 0.109 µM
- Emax [2]: 35%

Structure (SMILES): Cc1cc(COc2ccc(F)cc2C2CCN([C@@H]3COC4(C3)CN(c3nnco3)C4)CC2)on1 [Example 2G, (S)-7-(4-(5-fluoro-2-((3-methylisoxazol-5-yl)methoxy)phenyl)piperidin-1-yl)-2-(1,3,4-oxadiazol-2-yl)-5-oxa-2-azaspiro[3.4]octane]
- Emax [1]: 0%
- EC50 [1]: > 25 µM
- EC50 [2]: 0.061 µM
- Emax [2]: 55%

Structure (SMILES): CCC1(COc2ccc(F)cc2C2CCN([C@@H]3COC4(C3)CN(c3nnco3)C4)CC2)COC1 [Example 2P, (S)-7-(4-(2-((3-ethyloxetan-3-yl)methoxy)-5-fluorophenyl)piperidin-1-yl)-2-(1,3,4-oxadiazol-2-yl)-5-oxa-2-azaspiro[3.4]octane]
- Emax [1]: 0%
- EC50 [1]: > 25 µM
- EC50 [2]: 1.07 µM
- Emax [2]: 36%

Structure (SMILES): CC(C)(O)COc1ccccc1C1CCN([C@@H]2COC3(C2)CN(c2ncns2)C3)CC1 [Example 5Y, (S)-1-(2-(1-(2-(1,2,4-thiadiazol-5-yl)-5-oxa-2-azaspiro[3.4]octan-7-yl)piperidin-4-yl)phenoxy)-2-methylpropan-2-ol]
- Emax [1]: 0%
- EC50 [1]: > 25 µM
- EC50 [2]: > 25 µM
- Emax [2]: 0%

Structure (SMILES): CC(C)(O)CCOc1cc(F)ccc1C1CCN([C@@H]2COC3(C2)CN(c2nnco2)C3)CC1 [Example 1T, (S)-4-(2-(1-(2-(1,3,4-oxadiazol-2-yl)-5-oxa-2-azaspiro[3.4]octan-7-yl)piperidin-4-yl)-5-fluorophenoxy)-2-methylbutan-2-ol]
- Emax [1]: 0%
- EC50 [1]: > 25 µM
- EC50 [2]: > 25 µM
- Emax [2]: 0%

Structure (SMILES): OC1(COc2ccc(F)cc2C2CCN([C@@H]3COC4(C3)CN(c3nnco3)C4)CC2)COC1 [Example 2U, (S)-3-((2-(1-(2-(1,3,4-oxadiazol-2-yl)-5-oxa-2-azaspiro[3.4]octan-7-yl)piperidin-4-yl)-4-fluorophenoxy)methyl)oxetan-3-ol]
- Emax [1]: 0%
- EC50 [1]: > 25 µM
- EC50 [2]: 0.275 µM
- Emax [2]: 51%

Structure (SMILES): CC1(COc2ccc(F)cc2C2CCN([C@@H]3COC4(C3)CN(c3nncs3)C4)CC2)COC1 [Example 2B, (S)-7-(4-(5-fluoro-2-((3-methyloxetan-3-yl)methoxy)phenyl)piperidin-1-yl)-2-(1,3,4-thiadiazol-2-yl)-5-oxa-2-azaspiro[3.4]octane]
- Emax [1]: 0%
- EC50 [1]: > 25 µM
- EC50 [2]: 0.416 µM
- Emax [2]: 35%

Structure (SMILES): COC(C)(C)CCOc1ccc(F)cc1C1CCN([C@@H]2COC3(C2)CN(c2nnco2)C3)CC1 [Example 1K, (S)-7-(4-(5-fluoro-2-(3-methoxy-3-methylbutoxy)phenyl)piperidin-1-yl)-2-(1,3,4-oxadiazol-2-yl)-5-oxa-2-azaspiro[3.4]octane]
- Emax [1]: 0%
- EC50 [1]: > 25 µM
- EC50 [2]: > 25 µM
- Emax [2]: 0%

Structure (SMILES): c1ccc(C2CCN([C@@H]3COC4(C3)CN(c3nnco3)C4)CC2)c(-c2cncnc2)c1 [Example 1W, (S)-2-(1,3,4-oxadiazol-2-yl)-7-(4-(2-(pyrimidin-5-yl)phenyl)piperidin-1-yl)-5-oxa-2-azaspiro[3.4]octane]
- Emax [1]: 20%
- EC50 [1]: 13.8 µM
- EC50 [2]: 0.527 µM
- Emax [2]: 68%
